Reference: PubChem BioAssay (NCI)
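48-hour exposure; five concentrations; linearly interpolated endpoints. TGI denotes the concentration required for complete inhibition of growth.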

How the values were obtained:
Test in all cases: growth of human tumour cells (NCI), 48 h
SK-MEL-2 melanoma = test system: SK-MEL-2 melanoma
ACHN renal = test system: ACHN renal
MOLT-4 leukemia = test system: MOLT-4 leukemia
CCRF-CEM leukemia = test system: CCRF-CEM leukemia
UACC-257 melanoma = test system: UACC-257 melanoma
HCT-15 colon = test system: HCT-15 colon
SNB-75 CNS = test system: SNB-75 CNS
OVCAR-8 ovarian = test system: OVCAR-8 ovarian
SNB-19 CNS = test system: SNB-19 CNS
SF-539 CNS = test system: SF-539 CNS
MDA-MB-435 = test system: MDA-MB-435
SR leukemia = test system: SR leukemia
BT-549 breast = test system: BT-549 breast

Compound	TGI (SK-MEL-2 melanoma)	TGI (ACHN renal)	TGI (MOLT-4 leukemia)	TGI (CCRF-CEM leukemia)	TGI (UACC-257 melanoma)	TGI (HCT-15 colon)	TGI (SNB-75 CNS)	TGI (OVCAR-8 ovarian)	TGI (SNB-19 CNS)	TGI (SF-539 CNS)	TGI (MDA-MB-435)	TGI (SR leukemia)	TGI (BT-549 breast)
Nc1ccc(C(=O)NN2C(=O)C(Cl)C2c2ccc([N+](=O)[O-])cc2)cc1 (stereo not given)	31.8 µM	27 µM	9.8 µM	14 µM	31.2 µM	23.6 µM	24.5 µM	56 µM	26 µM	25.6 µM	–	–	–
O=c1[nH]c(=O)n(C2OC(CO)C(O)C2O)cc1OCCc1ccccc1 (stereo not given)	> 100 µM	> 100 µM	> 100 µM	> 100 µM	> 100 µM	> 100 µM	–	> 100 µM	> 100 µM	> 100 µM	> 100 µM	> 100 µM	–
CCN(CC)CCNc1ccc2ncn3c4c(OC)cccc4c(=O)c1c23	–	25.2 µM	–	17.3 µM	69.2 µM	19.2 µM	24.5 µM	55.6 µM	46.3 µM	22.8 µM	20.7 µM	20.8 µM	–
Fc1ccc(NCn2nc(COc3ccccc3Cl)n(/N=C/c3ccc(-c4ccc(Cl)cc4Cl)o3)c2=S)cc1Cl	62.6 µM	> 100 µM	45.5 µM	> 100 µM	> 100 µM	> 100 µM	–	> 100 µM	–	> 100 µM	> 100 µM	36.8 µM	–
CC1CC(=O)C(CC(=O)O)C1C(C(=O)C(=O)Nc1c(C#N)cccc1[N+](=O)[O-])[N+](=O)[O-] (stereo not given)	> 100 µM	> 100 µM	> 100 µM	> 100 µM	> 100 µM	> 100 µM	> 100 µM	> 100 µM	> 100 µM	> 100 µM	–	> 100 µM	–
CC(C)[Si](OCC1CC(C[C@H]2CC(C[C@H]3C[C@@H](CO[Si](C(C)C)(C(C)C)C(C)C)OC(C)(C)O3)OC(C)(C)O2)OC(C)(C)O1)(C(C)C)C(C)C (stereo not given in full)	> 100 µM	> 100 µM	> 100 µM	> 100 µM	> 100 µM	–	> 100 µM	> 100 µM	> 100 µM	> 100 µM	–	> 100 µM	–
O=C(N/N=C/C=C/c1ccc([N+](=O)[O-])o1)c1ccc(Br)s1	56.3 µM	38.7 µM	> 100 µM	> 100 µM	–	35.7 µM	> 100 µM	46.7 µM	78.9 µM	74.5 µM	83.6 µM	–	51.8 µM
O=C1SC(c2ccccc2)(c2ccccc2)c2ccccc21	> 100 µM	> 100 µM	> 100 µM	> 100 µM	> 100 µM	> 100 µM	> 100 µM	> 100 µM	> 100 µM	> 100 µM	–	–	–
O=c1oc2cccnc2n1CCN1CCN(c2ccc(Oc3ccccc3)cc2)CC1	> 100 µM	> 100 µM	> 100 µM	> 100 µM	> 100 µM	> 100 µM	> 100 µM	> 100 µM	> 100 µM	> 100 µM	> 100 µM	> 100 µM	–
O=C(O)C(Cc1cnc[nH]1)N=Cc1nc(-c2ccccc2)oc1O (stereo not given)	> 100 µM	> 100 µM	> 100 µM	> 100 µM	> 100 µM	> 100 µM	> 100 µM	> 100 µM	> 100 µM	> 100 µM	–	> 100 µM	–
Cc1ccc([N+](=O)[O-])cc1NC(=O)C(=O)Cc1cc(=O)oc2cc(O)ccc12	> 100 µM	> 100 µM	> 100 µM	> 100 µM	> 100 µM	> 100 µM	> 100 µM	> 100 µM	> 100 µM	> 100 µM	–	94.2 µM	–
CC(C)C(Sc1nc(-c2ccccc2)c(-c2ccccc2)[nH]1)C(=O)N/N=C/c1ccc([N+](=O)[O-])cc1 (stereo not given)	29.4 µM	> 100 µM	10.3 µM	28.2 µM	28.8 µM	36.5 µM	42.3 µM	> 100 µM	41.7 µM	36.5 µM	–	33.6 µM	–
CCCN1CN(c2ccccc2)C2(CCN(CCCC(=O)c3ccc(F)cc3)CC2)C1=O	25 µM	12.9 µM	15.5 µM	5.16 µM	6.09 µM	16.9 µM	47.5 µM	32.6 µM	34.7 µM	15.5 µM	23.5 µM	41.4 µM	–
CNC(=O)c1n[nH]n(Cc2ccccc2)c1=S	> 100 µM	> 100 µM	> 100 µM	> 100 µM	> 100 µM	> 100 µM	> 100 µM	> 100 µM	> 100 µM	–	> 100 µM	–	> 100 µM
Cc1ccc(S(=O)(=O)N/N=C/c2oc(-c3ccccc3Cl)c(-c3ccccc3Cl)c2[N+](=O)[O-])cc1	76.9 µM	39.2 µM	> 100 µM	> 100 µM	> 100 µM	–	–	> 100 µM	64 µM	46.1 µM	–	64.6 µM	–
C[N+](C)(C)C1(C(=O)[O-])CC1	–	> 100 µM	> 100 µM	> 100 µM	> 100 µM	> 100 µM	> 100 µM	> 100 µM	> 100 µM	> 100 µM	> 100 µM	> 100 µM	–
COC1=CC(=O)c2c(O)ccc(O)c2C1=O	–	34.4 µM	44.3 µM	43.6 µM	2.88 µM	6.91 µM	3.65 µM	55.5 µM	18.8 µM	10.4 µM	1.34 µM	–	6.17 µM
NC1=NN(c2ccccc2)C2(c3ccncc3C(=O)O)C1C(N)=NN2c1ccccc1 (stereo not given)	> 100 µM	> 100 µM	> 100 µM	> 100 µM	> 100 µM	> 100 µM	> 100 µM	> 100 µM	> 100 µM	> 100 µM	> 100 µM	–	> 100 µM
N#CC(C#N)=Cc1ccc(C=C2SC3=C(SCCS3)S2)s1	> 100 µM	> 100 µM	> 100 µM	> 100 µM	> 100 µM	> 100 µM	94 µM	> 100 µM	> 100 µM	28.1 µM	7.37 µM	–	15.2 µM

Compound	TGI (SK-MEL-2 melanoma)	TGI (ACHN renal)	TGI (MOLT-4 leukemia)	TGI (CCRF-CEM leukemia)	TGI (UACC-257 melanoma)	TGI (HCT-15 colon)	TGI (SNB-75 CNS)	TGI (OVCAR-8 ovarian)	TGI (SNB-19 CNS)	TGI (SF-539 CNS)	TGI (MDA-MB-435)	TGI (SR leukemia)	TGI (BT-549 breast)
CCOP(=O)(OCC)/C(C#N)=C/c1ccc[nH]1	> 100 µM	> 100 µM	> 100 µM	> 100 µM	> 100 µM	> 100 µM	> 100 µM	> 100 µM	> 100 µM	> 100 µM	–	> 100 µM	–
CCCC(=O)/C=C/S/C=C/C(=O)CCC	> 100 µM	6.92 µM	–	–	–	8.22 µM	83.6 µM	5.46 µM	72.3 µM	27 µM	18.6 µM	–	–
COc1cc2c(oc(=O)c3cc4ccoc4c(OC)c32)c2cccc(O)c12	> 100 µM	> 100 µM	> 100 µM	> 100 µM	> 100 µM	> 100 µM	> 100 µM	> 100 µM	> 100 µM	> 100 µM	–	> 100 µM	–
Cc1nc2c(n1CCC(C)C)C(=O)c1ccccc1C2=O	34.6 µM	> 100 µM	76.2 µM	53.9 µM	56.7 µM	> 100 µM	63 µM	> 100 µM	> 100 µM	25.4 µM	–	37.6 µM	–
C[C@@H]1OC(=O)C[C@H]2CC(=O)N(CCC3CN(S(=O)(=O)C(F)(F)F)c4ccc(Cc5ccc6c(c5)C(CCN5C[C@H]7[C@@H](CC(=O)O[C@H]7C)CC5=O)CN6S(=O)(=O)C(F)(F)F)cc43)C[C@@H]21 (stereo not given in full)	> 100 µM	> 100 µM	> 100 µM	> 100 µM	> 100 µM	> 100 µM	> 100 µM	> 100 µM	> 100 µM	1.84 µM	> 100 µM	–	> 100 µM
Cc1ccc(NC(=O)C(=O)C2NC(=S)NC2=O)c([N+](=O)[O-])c1 (stereo not given)	> 100 µM	> 100 µM	> 100 µM	> 100 µM	> 100 µM	> 100 µM	> 100 µM	> 100 µM	> 100 µM	> 100 µM	–	> 100 µM	–
COc1ccc(CC2NCCc3cc(OC)c(OC)cc32)cc1 (stereo not given)	> 100 µM	> 100 µM	> 100 µM	> 100 µM	> 100 µM	> 100 µM	> 100 µM	> 100 µM	> 100 µM	> 100 µM	–	> 100 µM	–
CCN(CC)CCC(=O)N1CCc2c([nH]c3ccccc23)C1c1cccnc1 (stereo not given)	–	> 100 µM	> 100 µM	> 100 µM	> 100 µM	> 100 µM	> 100 µM	> 100 µM	> 100 µM	> 100 µM	–	> 100 µM	–
O=C1c2ccccc2C(=O)C2C3c4ccccc4C(c4ccccc43)C12 (stereo not given)	–	> 100 µM	27.9 µM	26 µM	> 100 µM	> 100 µM	42.7 µM	42.3 µM	> 100 µM	25.4 µM	–	30.5 µM	–
COC(=O)c1cc(-c2ccc(-c3ccc(O)cc3)cc2)cc(-c2ccc(-c3ccc(O)cc3)cc2)c1	33.7 µM	27.3 µM	22.1 µM	31.2 µM	33.3 µM	20.8 µM	27.8 µM	–	32.8 µM	19.8 µM	24.9 µM	–	26.6 µM
O=C1/C(=C/c2ccc(Cl)cc2)N=C(c2ccccc2)N1C1Nc2cc3c(cc2S1)NC(N1C(=O)/C(=C/c2ccc(Cl)cc2)N=C1c1ccccc1)S3 (stereo not given)	> 100 µM	> 100 µM	> 100 µM	> 100 µM	> 100 µM	> 100 µM	–	> 100 µM	–	> 100 µM	> 100 µM	74.1 µM	–
COc1cc(C2c3[nH]c4ccc(F)cc4c3C[C@H]3COC(=O)N23)cc(OC)c1O (stereo not given in full)	60.3 µM	26.4 µM	> 100 µM	> 100 µM	> 100 µM	25.2 µM	8.84 µM	39.3 µM	> 100 µM	11.4 µM	–	–	> 100 µM
O/N=C1/CCCCCC1NO (stereo not given)	> 100 µM	> 100 µM	> 100 µM	–	> 100 µM	> 100 µM	–	> 100 µM	> 100 µM	> 100 µM	> 100 µM	–	–
C[N+](C)(C)Cc1c(CC#N)[nH]c2ccccc12	> 100 µM	> 100 µM	> 100 µM	> 100 µM	> 100 µM	> 100 µM	> 100 µM	> 100 µM	> 100 µM	> 100 µM	–	> 100 µM	–
C=CCOC(=O)CCCCCCCCCCCCCCCOC(=O)c1c(CCC[C@@H](C)O[Si](C)(C)C(C)(C)C)nc(=O)n2c1CC[C@H]2CC1(CC/C=C\[C@H](CC)O[Si](C(C)C)(C(C)C)C(C)C)OCCO1	> 100 µM	> 100 µM	–	> 100 µM	> 100 µM	> 100 µM	> 100 µM	–	> 100 µM	> 100 µM	> 100 µM	–	> 100 µM
COP(=O)(OC)C(O)/C=C(\Cl)c1ccc(Cl)cc1 (stereo not given)	> 100 µM	> 100 µM	86.1 µM	49 µM	84.6 µM	> 100 µM	> 100 µM	54.6 µM	> 100 µM	> 100 µM	> 100 µM	59.1 µM	–
CC(=O)OC1(C#N)CC2OC1C1C2N1C(=O)OC(C)(C)C (stereo not given)	> 100 µM	> 100 µM	> 100 µM	> 100 µM	–	> 100 µM	> 100 µM	> 100 µM	> 100 µM	> 100 µM	–	–	–
CC1C2(C)OC(=N)C(C#N)(C(c3ccco3)O2)C1(C#N)C#N (stereo not given)	75.9 µM	> 100 µM	> 100 µM	84.4 µM	51.9 µM	25 µM	> 100 µM	> 100 µM	> 100 µM	35.9 µM	–	–	> 100 µM
Cc1cc(NS(=O)(=O)c2ccc(NC(=O)c3cccc4cc5ccccc5nc34)cc2)no1	41.4 µM	29.8 µM	48.4 µM	54.3 µM	87.6 µM	35.7 µM	41.9 µM	45.8 µM	19.3 µM	33.3 µM	–	–	–
